Measured values from the NIST ThermoML archive (doi:10.1016/j.jct.2019.07.007).

Assay: wn = mass fraction of the nth substance listed
Conditions: 101 kPa, Liquid, Concentric cylinders viscometry

CC(O)CN(C)C (centres undefined) [1-(dimethylamino)-2-propanol] + O
viscosity [mPa·s]
Conditions	303.2 K	313.2 K	323.2 K
w1 = 0.3	3.1	2.18	1.66
w1 = 0.4	4.56	3.08	2.19
w1 = 0.5	6.01	3.96	2.79
